According to PubChem BioAssay (NCI):
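All cell lines were grown in 96-well plates and treated with compound for 48 hours. TGI marks complete inhibition of growth.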

Experiments:
Test in all cases: growth of human tumour cells (NCI), 48 h
786-0 renal = test system: 786-0 renal
A498 renal = test system: A498 renal
A549 NSCLC = test system: A549 NSCLC
ACHN renal = test system: ACHN renal
BT-549 breast = test system: BT-549 breast
CAKI-1 renal = test system: CAKI-1 renal
CCRF-CEM leukemia = test system: CCRF-CEM leukemia
COLO 205 colon = test system: COLO 205 colon
DU-145 prostate = test system: DU-145 prostate
EKVX NSCLC = test system: EKVX NSCLC
HCC-2998 colon = test system: HCC-2998 colon
HCT-116 colon = test system: HCT-116 colon
HL-60(TB) leukemia = test system: HL-60(TB) leukemia
HOP-62 NSCLC = test system: HOP-62 NSCLC
HOP-92 NSCLC = test system: HOP-92 NSCLC
HS 578T breast = test system: HS 578T breast
HT29 colon = test system: HT29 colon
IGROV1 ovarian = test system: IGROV1 ovarian
K-562 leukemia = test system: K-562 leukemia
KM12 colon = test system: KM12 colon
M14 melanoma = test system: M14 melanoma
MALME-3M melanoma = test system: MALME-3M melanoma
MCF7 breast = test system: MCF7 breast
MDA-MB-231 breast = test system: MDA-MB-231 breast
MDA-MB-435 = test system: MDA-MB-435
MDA-N = test system: MDA-N
MOLT-4 leukemia = test system: MOLT-4 leukemia
NCI-H226 lung = test system: NCI-H226 lung
NCI-H23 lung = test system: NCI-H23 lung
NCI-H460 lung = test system: NCI-H460 lung
NCI-H522 lung = test system: NCI-H522 lung
OVCAR-3 ovarian = test system: OVCAR-3 ovarian
OVCAR-4 ovarian = test system: OVCAR-4 ovarian
OVCAR-5 ovarian = test system: OVCAR-5 ovarian
OVCAR-8 ovarian = test system: OVCAR-8 ovarian
PC-3 prostate = test system: PC-3 prostate
RXF 393 renal = test system: RXF 393 renal
SF-268 CNS = test system: SF-268 CNS
SF-295 CNS = test system: SF-295 CNS
SF-539 CNS = test system: SF-539 CNS
SK-MEL-28 melanoma = test system: SK-MEL-28 melanoma
SK-MEL-5 melanoma = test system: SK-MEL-5 melanoma
SK-OV-3 ovarian = test system: SK-OV-3 ovarian
SN12C renal = test system: SN12C renal
SNB-19 CNS = test system: SNB-19 CNS
SNB-75 CNS = test system: SNB-75 CNS
SR leukemia = test system: SR leukemia
SW-620 colon = test system: SW-620 colon
T-47D breast = test system: T-47D breast
TK-10 renal = test system: TK-10 renal
U251 CNS = test system: U251 CNS
UACC-257 melanoma = test system: UACC-257 melanoma
UACC-62 melanoma = test system: UACC-62 melanoma
UO-31 renal = test system: UO-31 renal
HCT-15 colon = test system: HCT-15 colon
LOX IMVI melanoma = test system: LOX IMVI melanoma
NCI/ADR-RES ovarian = test system: NCI/ADR-RES ovarian
RPMI-8226 leukemia = test system: RPMI-8226 leukemia
SK-MEL-2 melanoma = test system: SK-MEL-2 melanoma

Measured: TGI

CC1C2CC(C/C2=N/O)C1(C)C (centres undefined)
> 100 µM: 786-0 renal | A498 renal | A549 NSCLC | ACHN renal | BT-549 breast | CAKI-1 renal | CCRF-CEM leukemia | COLO 205 colon | DU-145 prostate | EKVX NSCLC | HCC-2998 colon | HCT-116 colon | HL-60(TB) leukemia | HOP-62 NSCLC | HOP-92 NSCLC | HS 578T breast | HT29 colon | IGROV1 ovarian | K-562 leukemia | KM12 colon | M14 melanoma | MALME-3M melanoma | MCF7 breast | MDA-MB-231 breast | MDA-MB-435 | MDA-N | MOLT-4 leukemia | NCI-H226 lung | NCI-H23 lung | NCI-H460 lung | NCI-H522 lung | OVCAR-3 ovarian | OVCAR-4 ovarian | OVCAR-5 ovarian | OVCAR-8 ovarian | PC-3 prostate | RXF 393 renal | SF-268 CNS | SF-295 CNS | SF-539 CNS | SK-MEL-28 melanoma | SK-MEL-5 melanoma | SK-OV-3 ovarian | SN12C renal | SNB-19 CNS | SNB-75 CNS | SR leukemia | SW-620 colon | T-47D breast | TK-10 renal | U251 CNS | UACC-257 melanoma | UACC-62 melanoma | UO-31 renal

CCOP(=O)(OCC)C1(O)CC(n2cc(C)c(=O)[nH]c2=O)OC1CO (centres undefined)
> 100 µM: 786-0 renal | A498 renal | A549 NSCLC | ACHN renal | CAKI-1 renal | COLO 205 colon | DU-145 prostate | EKVX NSCLC | HCC-2998 colon | HCT-116 colon | HCT-15 colon | HL-60(TB) leukemia | HOP-62 NSCLC | HOP-92 NSCLC | HS 578T breast | HT29 colon | IGROV1 ovarian | K-562 leukemia | KM12 colon | LOX IMVI melanoma | M14 melanoma | MALME-3M melanoma | MCF7 breast | MDA-MB-435 | MDA-N | NCI-H226 lung | NCI-H23 lung | NCI-H460 lung | NCI-H522 lung | NCI/ADR-RES ovarian | OVCAR-3 ovarian | OVCAR-4 ovarian | OVCAR-5 ovarian | OVCAR-8 ovarian | PC-3 prostate | RPMI-8226 leukemia | RXF 393 renal | SF-268 CNS | SF-295 CNS | SF-539 CNS | SK-MEL-2 melanoma | SK-MEL-28 melanoma | SK-MEL-5 melanoma | SK-OV-3 ovarian | SN12C renal | SNB-19 CNS | SNB-75 CNS | SR leukemia | SW-620 colon | T-47D breast | TK-10 renal | U251 CNS | UACC-257 melanoma | UACC-62 melanoma | UO-31 renal
